*1 amine or outer side, *2 acyl side, *3 side chain or, on linkers, in order; H or OH if unused. Where a SMILES comes first, the peptide text is derived from it. Bridges are numbered along the chain shown (N, C = ends). [ ]: non-standard residue; d: D form. 2Nal = N[C@@H](Cc1ccc2ccccc2c1)C(=O)O; AEF = NCCOc1ccc(C[C@H](N)C(=O)O)cc1; X1 = O=C(Cc1ccc(CN[*:1])cc1)[*:2]; 3Pal = N[C@@H](Cc1cccnc1)C(=O)O; αMeL = CC(C)C[C@](C)(N)C(=O)O; Dab = NCC[C@H](N)C(=O)O; Sar = CNCC(=O)O
Key:
[1] = Peptide stability in simulated gastric fluid (SGF); assay type: in vitro ADME; conditions: pig, pH 1.2, pepsin, 37° C.
Outline: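 Peptide (10 μM final) incubated at 37 °C in USP SGF, pH 1.2 with porcine pepsin 3.2 g/L; aliquots at 0, 1 and 4 h quenched in acidified acetonitrile.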

[2] = tested on: IL-23 mediated IFN-γ secretion (human whole blood); experiment: Functional inhibition of IL-23 mediated IFN-γ secretion in human whole blood; assay type: cell-based; conditions: Table 3-5, hIL-23 EC80 with hIL-2 and hIL-18
Excerpt: An in vitro human whole blood assay was used to assess the ability of IL23-R inhibitor compounds to inhibit IL-23-mediated IFN-γ secretion. The assay quantifies the functional antagonism of the IL23R inhibitors may be used to rank inhibitor potencies based on concentration response curves (CRCs) generated in the presence of fixed IL-23, IL-2 and IL-18 concentrations. […] and maximal inhibitory response may be calculated from the curves.
Human blood was obtained from voluntary donors at Blodbanken Hvidovre Hospital, Denmark on the day of the experiment by collection in BD Sodium-Heparin Vacutainer tubes [Cat #367876, Avantor].
The buffer used consisted of RPMI-1640 [Cat #61870-010; Thermo Fisher Scientific] supplemented with 1% V/V Penicillin-Streptomycin (Pen-Strep) Solution [Cat #15140; Thermo Fisher Scientific] and 1 mM Sodium Pyruvate [Cat #11360-039, Thermo Fisher Scientific] and 25 mM HEPES buffer [Cat #15630-056, Thermo Fisher Scientific] and 0.05% V/V Casein [Cat #C4765, Sigma-Aldrich] (hereafter referred to as assay buffer). […] A stimulatory solution of hIL-23 [Cat #11349-IL; R&D systems] corresponding to 4× the EC80 of hIL-23 (1.6 ng/ml) together with 4× hIL-2 [Cat #BT-002; R&D systems] (40 ng/ml) and 4× hIL-18 [Cat #9124-IL; R&D systems] (80 ng/ml) were also prepared in Assay buffer. To initiate the assay, 25 μL of the prepared 4× diluted test compound was added to the wells of a 96 well plate [Cat #167425; Thermo Scientific] followed by addition of 50 μL human whole blood to each well. Following the preincubation of the blood and inhibitor for 15 min in a cell incubator (37° C., 5% CO2), 25 μL of the prepared 4× stimulatory solution was added to each well and incubated for 16-24 hours in a humidity chamber in a cell incubator (37° C., 5% CO2).
To terminate the assay, 100 μL PBS pH 7.4 [Cat #10010-015; Thermo Fisher Scientific] was added to each well and the plate was spun at 350×G for ten minutes to pellet the blood. The supernatant was removed and added to a 96 well V-bottom Polypropylene plate [Corning 3363] using an 8-channel manual pipette.
Samples were diluted an additional 30× in Diluent 57 buffer from the MSD U-PLEX human IFN-γ assay [Cat #K151TTK-2; Mesoscale Discovery].
The IFN-γ level in the supernatant from the individual wells was determined using the MSD U-PLEX human IFN-γ assay kit [Cat #K151TTK-2; Mesoscale Discovery] and read on a Meso QuickPlex SQ 120 plate reader (Mesoscale Discovery).
For data analysis, raw data counts from the Meso QuickPlex SQ 120 plate reader were converted to concentrations of IFN-γ by using the standard curved supplied with the kit. Compound potency (IC50) and maximal inhibition (% inhibition) was estimated by computer-aided curve fitting using a 4-parameter logistic (4PL) non-linear mode. […] Maximal inhibition was expressed as a percentage where 0% is the activity level induced by the reference agonist alone ([…] together with IL-2 and IL-18 as indicated above), and 100% is the baseline activity level of the unstimulated receptor in the absence of the reference agonist.
Typically compounds with a low IC50 are desired. Typically compounds capable of completely inhibiting the IL23-induced response are desired.

[3] = Peptide stability in simulated intestinal fluid (SIF); assay type: in vitro ADME; conditions: simulated intestinal fluid; for remaining at 1 h, 10 µM: pig, SIF, pH 6.8, pancreatin, 37° C.
Outline: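 Peptide at 10 μM final in USP-type SIF (10 g/L porcine pancreatin, phosphate buffer pH 6.8), shaken at 37 °C. Samples at 0, 1 and 4 h quenched in acetonitrile/0.1% formic acid and analysed by LC-HRMS. Percent remaining calculated from absolute peak areas relative to time zero.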

remaining at 1 h, 10 µM [1] [%]	remaining at 4 h, 10 µM [1] [%]	IC50 [2] [nM]	remaining at 1 h, 10 µM [3] [%]	SIF stability (in words) [3]	Structure (SMILES)	maximal inhibition (%) [2] [%]
91	87	0.33	96	SIF stable	CNC(=O)[C@H](Cc1cccnc1)NC(=O)[C@H](CCN)NC(=O)[C@@H]1CCC(=O)NCc2ccc(cc2)CC(=O)N[C@@H](CO)C(=O)N[C@H]2CCC(=O)NCC[C@H](NC(=O)[C@H](CCC(N)=O)NC(=O)[C@H](Cc3c[nH]c4ccccc34)NC2=O)C(=O)N[C@@H](Cc2ccc(OCCN)cc2)C(=O)N[C@@H](Cc2ccc3ccccc3c2)C(=O)N[C@@](C)(CC(C)C)C(=O)N1 [Compound 8, [4-Aminomethyl-phenylacetyl](1c)*SE(2c)WQ[Dab](2c)[Y(2-aminoethoxy)][2-Nal][2-Me-Leu]E(1c)[Dab][3-(3-Pyridyl)-Ala]-[NHMe]]	96
–	95	0.21	102	SIF stable	CC(C)C[C@]1(C)NC(=O)[C@H](Cc2ccc3ccccc3c2)NC(=O)[C@H](Cc2ccc(OCCN)cc2)NC(=O)[C@@H]2CCNC(=O)CC[C@H](NC(=O)[C@H](CO)NC(=O)Cc3ccc(cc3)CNC(=O)CC[C@@H](C(=O)N[C@@H](CCN)C(=O)N[C@@H](Cc3cccnc3)C(=O)N(C)CC(N)=O)NC1=O)C(=O)N[C@@H](Cc1c[nH]c3ccccc13)C(=O)N[C@@H](CCC(N)=O)C(=O)N2 [Compound 9, [4-Aminomethyl-phenylacetyl](1c)*SE(2c)WQ[Dab](2c)[Y(2-aminoethoxy)][2-Nal][2-Me-Leu]E(1c)[Dab][3-(3-Pyridyl)-Ala][Sar]-[NH2]] ([X1]SEWQ[Dab][AEF][2Nal][αMeL]E[Dab][3Pal][Sar]-NH2; lactam 3-6, N-10)	97
107	103	0.64	–	–	CNC(=O)[C@H](Cc1cccnc1)NC(=O)[C@H](CCN)NC(=O)[C@@H]1CCC(=O)NCc2ccc(cc2)CC(=O)N[C@@H](C)C(=O)N[C@H]2CCC(=O)NCC[C@H](NC(=O)[C@H](CCC(N)=O)NC(=O)[C@H](Cc3c[nH]c4ccccc34)NC2=O)C(=O)N[C@@H](Cc2ccc(OCCN)cc2)C(=O)N[C@@H](Cc2ccc3ccccc3c2)C(=O)N[C@@](C)(CC(C)C)C(=O)N1 [Compound 20, [4-Aminomethyl-phenylacetyl](1c)*AE(2c)WQ[Dab](2c)[Y(2-aminoethoxy)][2-Nal][2-Me-Leu]E(1c)[Dab][3-(3-Pyridyl)-Ala]-[NHMe]]	97
94	90	0.54	91	–	CNC(=O)CC[C@@H]1NC(=O)[C@H](Cc2c[nH]c3ccccc23)NC(=O)[C@@H]2CCC(=O)NCC[C@H](NC1=O)C(=O)N[C@@H](Cc1ccc(OCCN)cc1)C(=O)N[C@@H](Cc1ccc3ccccc3c1)C(=O)N[C@@](C)(CC(C)C)C(=O)N[C@H](C(=O)N[C@@H](CCN)C(=O)N[C@@H](Cc1cccnc1)C(=O)NC)CCC(=O)NCc1ccc(cc1)CC(=O)N[C@@H](CO)C(=O)N2 [Compound 29, [4-Aminomethyl-phenylacetyl](1c)*SE(2c)W[Q(Me)][Dab](2c)[Y(2-aminoethoxy)][2-Nal][2-Me-Leu]E(1c)[Dab][3-(3-Pyridyl)-Ala]-[NHMe]] ([X1]SEWE(NHMe)[Dab][AEF][2Nal][αMeL]E[Dab][3Pal]-NHMe; lactam 3-6, N-10)	96
105	–	3.9	96	–	CNC(=O)[C@H](Cc1cccnc1)NC(=O)[C@H](CCN)NC(=O)[C@@H]1CCC(=O)NCc2ccc(cc2)CC(=O)N[C@@H](C)C(=O)N[C@H]2CCC(=O)NCC[C@H](NC(=O)[C@H](CCC(N)=O)NC(=O)[C@H](Cc3c[nH]c4ccccc34)NC2=O)C(=O)N[C@@H](Cc2c[nH]c3ncccc23)C(=O)N[C@@H](Cc2ccc3ccccc3c2)C(=O)NC(C)(C)C(=O)N1 [Compound 43, [4-Aminomethyl-phenylacetyl](1c)*AE(2c)WQ[Dab](2c)[7-AzaTrp][2-Nal][Aib]E(1c)[Dab][3-(3-Pyridyl)-Ala]-[NHMe]]	102
